According to patent US20120016011A1, “RNA Interference Mediated Inhibition of Connective Tissue Growth Factor (CTGF) Gene Expression Using Short Interfering Nucleic Acid (siNA)” (Merck Sharp & Dohme Corp., priority 2009, published 2012):
[invAb] = inverted abasic unit; d = 2'-deoxy (DNA); m = 2'-O-methyl; r = 2'-OH (RNA); f = 2'-fluoro

Key:
CTGF mRNA [1] = assay: CTGF mRNA knockdown (Taqman RT-PCR) after siNA transfection of mouse NIH 3T3 cells; format: cell-based; settings: mouse NIH3T3 cells, 10 nM siNA, 24 hrs, average of 3 experiments, vs non-targeting control
Protocol: NIH 3T3 (mouse; ATCC cat# CRL-1658): Cells were cultured at 37° C. in the presence of 5% CO2 and grown in Dulbecco's modified Eagle's medium (DMEM) with 4 mM L-glutamine adjusted to contain 1.5 g/L sodium bicarbonate and 4.5 g/L glucose and supplemented with fetal bovine serum at a final concentration of 10%, 100 μg/mL of streptomycin, and 100 U/mL penicillin.
(§1) Cells were plated in all wells of a tissue-culture treated, 96-well plate at a final count of 5000 cells/well in […], of the appropriate culture media. The cells were cultured for 24 hours after plating at 37° C. in the presence of 5% CO2.
(§2) After 24 hours, complexes containing siNA and RNAiMax were created as follows: A solution of RNAiMax diluted 33-fold in OPTI-MEM was prepared. In parallel, solutions of the siNAs for testing were prepared to a final concentration of 120 nM in OPTI-MEM. After incubation of RNAiMax/OPTI-MEM solution at room temperature for 5 min, an equal volume of the siNA solution and the RNAiMax solution were added together for each of the siNAs.
(§3) This solution was incubated at room temperature for 20 minutes. After incubation, 20 uL of the solution was added to each of the relevant wells. The final concentration of siNA in each well was 10 nM and the final volume of RNAiMax in each well was 0.3 ul.
(§4) The time of incubation with the RNAiMax-siNA complexes was 24 hours and there was no change in media between transfection and harvesting, unless otherwise indicated.
(§5) RNA was extracted from a 96-well plate using the TaqMan® Gene Expression Cells-to-CT™ Kit (Cat# 4399002) with a modified protocol. Briefly, a 60 uL (1 plate) or 110 uL (2 plates) of the Lysis Solution with DNase I was dispensed into each well of the Lysis Buffer Plate (twin.tec full skirt plate). The lysis buffer and stop plates were stored at 4° C. until the cells were washed.
(§6) The plate was spun at 1100 rpm for 5 minutes. The culture medium was aspirated and discarded from the wells of the culture plate. The lysis was performed automatically using a BioMek FX instrument and method. After the Biomek method was completed, the lysis plate was incubated for 2 min. at room temperature. The lysis plate can be stored for 2 hours at 4° C., or at −20° C. or −80° C. for two months.
(§7) Each well of the reverse transcription plate required 10 uL of 2× reverse transcriptase Buffer, 1 uL of 20× reverse transcription enzyme and 2 uL of nuclease-free water. The reverse transcription master mix was prepared by mixing 2× reverse transcription buffer, 20× reverse transcription enzyme mix, and nuclease-free water. 13 uL of the reverse transcription master mix was dispensed into each well of the reverse transcription plate (semi-skirted). A separate reverse transcription plate was prepared for each cell plate. The plate was loaded onto a Biomek NX or Biomek FX Dual -96 and the Biomek method was run. The program is programmed to automatically added 7 uL of lysate from the cell lysis procedure described above into each well of the reverse transcription plate. The plate is sealed and spun on a centrifuge (1000 rpm for 30 seconds) to settle the contents to the bottom of the reverse transcription plate. The plate is placed in a thermocycler at 37° C. for 60 min, 95° C. for 5 min, and 4° C. until the plate is removed from the thermocycler. Upon removal, if not used immediately, the plate was frozen at −20° C.
(§8) A series of probes and primers were used to detect the various mRNA transcripts of the genes of β-Actin (human cell line only), and of CTGF and GAPDH in mouse and human cell lines. All Taqman probes and primers for the experiments here-in described were supplied as pre-validated sets by Applied Biosystems, Inc. (see Table 3).
The assays were performed on an ABI 7900 instrument, according to the manufacturer's instructions. A TaqMan Gene Expression Master Mix (provided in the Cells-to-CT™, Applied Biosystems, Cat # 4399002) was used. […]

CTGF mRNA [2] = assay: CTGF mRNA knockdown (Taqman RT-PCR) after siNA transfection of human NHLF cells; format: cell-based; settings: 10 nM siNA, 24 hrs, average of 3 experiments, vs non-targeting control
Protocol: NHLF (Normal human lung fibroblasts; Lonza cat# CC-2512): Cells were cultured at 37° C. in the presence of 5% CO2 and grown in Fibroblast Basal Medium (Lonza cat# CC-3132) supplemented with 2% FBS and growth factors (provided with the kit) and 100 μg/mL of streptomycin and 100 U/mL penicillin.
as §1, §2, §3, §4, §5, §6, §7, §8
The assays were performed on an ABI 7900 instrument, according to the manufacturer's instructions. A TaqMan Gene Expression Master Mix (provided in the Cells-to-CT™, Applied Biosystems, Cat # 4399002) was used. The PCR reactions were carried out at 50° C. for 2 min, 95° C. for 20 min followed by 40 cycles at 95° C. for 15 secs and 60° C. for 1 min. […]

Substance | % KD Mouse (CTGF mRNA [1]) | % KD Human (CTGF mRNA [2])
48056-DC: siNA duplex; sense SEQ ID NO: 77 B cuGuGccuGccAuuAcAAc TTB; antisense SEQ ID NO: 78 GUUGuAAuGGcAGGcAcAGUU (sense CUGUGCCUGCCAUUACAACTT; antisense GUUGUAAUGGCAGGCACAGUU; sense: DNA at AGT, 2'-fluoro at CU, [invAb] at 5' end, 3' end, backbone not given here; antisense: sugars from the 5' end rrrmfmmfmmfmmmfmfmmmm, backbone not given here) | 20 ± 6% | 6 ± 7%
48073-DC: siNA duplex; sense SEQ ID NO: 111 B GGAGAcAuGGcGuAAAGcc TTB; antisense SEQ ID NO: 112 GGCuuuAcGccAuGucuccUU (sense GGAGACAUGGCGUAAAGCCTT; antisense GGCUUUACGCCAUGUCUCCUU; sense: DNA at AGT, 2'-fluoro at CU, [invAb] at 5' end, 3' end, backbone not given here; antisense: sugars from the 5' end rrrfffmfmffmfmfffffmm, backbone not given here) | 25 ± 8% | 7 ± 7%
48052-DC: siNA duplex; sense SEQ ID NO: 69 B GcGAGGucAuGAAGAAGAA TTB; antisense SEQ ID NO: 70 UUCuucuucAuGAccucGcUU (sense GCGAGGUCAUGAAGAAGAATT; antisense UUCUUCUUCAUGACCUCGCUU; sense: DNA at AGT, 2'-fluoro at CU, [invAb] at 5' end, 3' end, backbone not given here; antisense: sugars from the 5' end rrrffffffmfmmffffmfmm, backbone not given here) | 41 ± 4% | 27 ± 16%
48045-DC: siNA duplex; sense SEQ ID NO: 55 B cuGAcGGcGAGGucAuGAA TTB; antisense SEQ ID NO: 56 UUCAuGAccucGccGucAGUU (sense CUGACGGCGAGGUCAUGAATT; antisense UUCAUGACCUCGCCGUCAGUU; sense: DNA at AGT, 2'-fluoro at CU, [invAb] at 5' end, 3' end, backbone not given here; antisense: sugars from the 5' end rrrmfmmffffmffmffmmmm, backbone not given here) | 19 ± 4% | 18 ± 4%
48063-DC: siNA duplex; sense SEQ ID NO: 91 B AcAcGAAcucAuuAGAcuA TTB; antisense SEQ ID NO: 92 UAGucuAAuGAGuucGuGuUU (sense ACACGAACUCAUUAGACUATT; antisense UAGUCUAAUGAGUUCGUGUUU; sense: DNA at AGT, 2'-fluoro at CU, [invAb] at 5' end, 3' end, backbone not given here; antisense: sugars from the 5' end rrrfffmmfmmmfffmfmfmm, backbone not given here) | 84 ± 2% | 59 ± 3%
48051-DC: siNA duplex; sense SEQ ID NO: 67 B GGGuGuGUGAcGAGcccAA TTB; antisense SEQ ID NO: 68 UUGGGcucGucAcAcAcccUU (sense GGGUGUGUGACGAGCCCAATT; antisense UUGGGCUCGUCACACACCCUU; sense: sugars from the 5' end dddfdfddddfdddfffdddd, [invAb] at 5' end, 3' end, backbone not given here; antisense: sugars from the 5' end rrrmmfffmffmfmfmfffmm, backbone not given here) | 14 ± 11% | 15 ± 10%
48074-DC: siNA duplex; sense SEQ ID NO: 113 B GGAGGAAcuAucccAccAA TTB; antisense SEQ ID NO: 114 UUGGuGGGAuAGuuccuccUU (sense GGAGGAACUAUCCCACCAATT; antisense UUGGUGGGAUAGUUCCUCCUU; sense: DNA at AGT, 2'-fluoro at CU, [invAb] at 5' end, 3' end, backbone not given here; antisense: sugars from the 5' end rrrmfmmmmfmmfffffffmm, backbone not given here) | 21 ± 2% | 3 ± 9%
48053-DC: siNA duplex; sense SEQ ID NO: 71 B cAGAGAGuGAGAGAcAuuA TTB; antisense SEQ ID NO: 72 UAAuGucucucAcucucuGUU (sense CAGAGAGUGAGAGACAUUATT; antisense UAAUGUCUCUCACUCUCUGUU; sense: DNA at AGT, 2'-fluoro at CU, [invAb] at 5' end, 3' end, backbone not given here; antisense: sugars from the 5' end rrrfmffffffmffffffmmm, backbone not given here) | 26 ± 9% | 45 ± 7%
48064-DC: siNA duplex; sense SEQ ID NO: 93 B AGuGGAGAuGccAGGAGAA TTB; antisense SEQ ID NO: 94 UUCuccuGGcAucuccAcuUU (sense AGUGGAGAUGCCAGGAGAATT; antisense UUCUCCUGGCAUCUCCACUUU; sense: DNA at AGT, 2'-fluoro at CU, [invAb] at 5' end, 3' end, backbone not given here; antisense: sugars from the 5' end rrrffffmmfmfffffmffmm, backbone not given here) | 58 ± 3% | 6 ± 6%
48079-DC: siNA duplex; sense SEQ ID NO: 123 B ucAAGAccuGuGccuGccA TTB; antisense SEQ ID NO: 124 UGGcAGGcAcAGGucuuGAUU (sense UCAAGACCUGUGCCUGCCATT; antisense UGGCAGGCACAGGUCUUGAUU; sense: DNA at AGT, 2'-fluoro at CU, [invAb] at 5' end, 3' end, backbone not given here; antisense: sugars from the 5' end rrrfmmmfmfmmmffffmmmm, backbone not given here) | 17 ± 6% | 21 ± 11%
48065-DC: siNA duplex; sense SEQ ID NO: 95 B GccuGucAAGuuuGAGcuu TTB; antisense SEQ ID NO: 96 AAGcucAAAcuuGAcAGGcUU (sense GCCUGUCAAGUUUGAGCUUTT; antisense AAGCUCAAACUUGACAGGCUU; sense: DNA at AGT, 2'-fluoro at CU, [invAb] at 5' end, 3' end, backbone not given here; antisense: sugars from the 5' end rrrfffmmmfffmmfmmmfmm, backbone not given here) | 46 ± 7% | 19 ± 6%
